According to patent US10729700B2, “Methods and compositions of bile acids and salts for reduction of fat” (priority 2014, dated 2020):
Where two headings read alike, the source gives them in different places.

Key:
[1] = Stability of bile salts in aqueous solution; settings: for pH in which aqueous solution remained stable: 1% (w/v), 10 mM phosphate buffer, 25° C.; for Solution stability of bile salt: 1% in 10 mM phosphate buffer; for pH stability: summary, Table 4
Protocol: 0.01 g of bile salts (UDCA, DCA, CDCA and CA) were dissolved in 1 ml of phosphate buffer and placed at room temperature for 10 days.

3T3-L1 adipocytes = experiment: Cell lysis effect by detergent in vitro (MTT assay); type: cell-based; settings: for EC50 (concentration that kills 50% of the cells) / ED50 (% w/v); EC50 values of bile salts required to lysis of adipose cells in vitro: differentiated 3T3-L1 adipocytes; for ED50 (% w/v); EC50 values of bile salts required to lysis of adipose cells in vitro: 1 hour, MTT
Protocol: To induce adipocyte differentiation, 3T3-L1 pre-adipocytes were seeded in 96-well plate (5×10^3 cells/well) and grown until 2 days post-confluence (day 0) and then treated for 2 days with growth media plus MDI (0.5 μM methylisobutylxanthine, 1 μM dexamethasone and 10 ug/ml insulin; all from Sigma-Aldrich Chemical, St. Louis, Mo., USA), followed by 2 days of treatment with the media containing 10 ug/ml insulin alone. Medium was replaced every 2 days for the following 8 days. Differentiated adipocytes in 96 well plate were washed twice with PBS and incubated in various concentrations of bile salts in serum free DMEM. After 1 hour incubation at 37° C., media were changed and 20 μl of MTT solution (5 mg MTT/ml in PBS) was added into each well and incubated for 1 hour at 37° C. The resultant formazan product was dissolved in 100 μl of DMSO/well and cell viability was determined by measuring the optical density at 570 nm (OD570) using a microplate reader.

mice skin = experiment: In vivo monitoring of adverse events on the skin; settings: for skin lesions on the injected area: subcutaneous, pH 7.4, 0.5-1.5%
Protocol: Injections were repeated 1 more times 3 days after first injection. […] The severity of skin lesion was assessed using the following criteria. The total skin severity score was defined as the sum of the individual scores for each of the following character and length of lesion. Length of lesion is determined by measuring the longest diameter of the largest lesion identified. Measured length should involve the lesion only and not cross over clinically normal skin. The length of lesion involvement within each injected site was scored from 0 to 3, where 0=no involvement; 1=<0.2 cm, 2=0.2˜0.5 cm, 3=>0.5 cm of the length of site affected. The character of lesion was scored from 0 to 3, where 0=no lesion present, 1=excoriation only one or one, small punctate crust (<2 mm), 2=multiple, small punctate crusts or coalescing crust (>2 mm), 3=erosion or ulceration.

[2] = tested on: inguinal fat pad of obese mouse; experiment: In vivo monitoring of bile salts induced fat loss; settings: 1% solutions, 5 times during 2 weeks
rat paws [3] = experiment: Bile salt-induced paw edema; settings: 4 hours after injection; for severity of edema (paw thickness): concentrations and pHs showing similar tissue lysis effects
Protocol: (§1) Male SD rats (6 weeks old) were purchased from Koatech Co. (Seoul, Korea) and used after 1 week of acclimation. Rats (200˜230 g) were randomly selected and the volume of intact rats paw was measured in all groups using a digital caliper (Bluebird, Seoul, Korea). […] To induce the edema, rats received 100 μl of various bile salts and PBS into the plantar region of the hind foot of rats. Measurements of the paw volume were performed by a caliper immediately before the bile salts injection and 4 hours after injection.

[4] = tested on: Inguinal fat (subcutaneous fat) pads; experiment: Ex vivo fat lysis assay (MTT); type: cell-based, diet induced obese mice; settings: for ED50 (% w/v); EC50 values of bile salts required to lysis of fat tissues ex vivo: fat tissues of high fat diet mice, 10 minutes, MTT; for effect of increased pH of solution on fat lysis activities: pH 6.0 ˜pH 9.0, bile salt at EC50 in pH 7.4; for fat lysis activities above the pH 9: solutions above the pH 9; for EC50 fold higher than DCA or CDCA, ex vivo: relative to DCA or CDCA
Protocol: Inguinal fat (subcutaneous fat) pads were excised from diet induced obese mice and chopped to about the same size. 100 mg tissue samples were transferred to 48 well plates and incubated with 350 μl of various concentrations and pH of DCA, CDCA, CA, and phosphate buffer for 10 minutes. 70 μl of MTT solution (5 mg/ml in PBS) was added into each well and incubated for overnight at 37° C. The solution was removed and precipitated formazan product was dissolved in 300 μl of DMSO. Tissue viability was monitored by measuring the optical density at 570 nm (OD570) using a microplate reader.

[5] = tested on: inguinal fat pads of obese mice; experiment: Quantitation of in vivo necrotic area (TTC staining) and histology of injected fat pads; settings: for tissue lysis effect with higher concentration: necrotic area, FIGS. 12B and 12C
Protocol: Various concentrations of bile salts (DCA, CDCA, and CA) solutions in 100 μl volume of PBS were injected to the inguinal fat pads of obese mice. Mice were sacrificed at 1 day after the injection. Mouse inguinal fat pads were stained with 2% TTC (Sigma-Aldrich Chemical, St. Louis, Mo., USA) in PBS for 2 hour to identify the non-necrotic and necrotic areas and subsequently immersed in 10% formalin to enhance the contrast. […] The appearance and area of necrotic fat regions were captured and imaged by scanner. The necrotic area of fat pad treated DCA, CDCA, CA, and PBS was calculated by Image J.

tails of female ICR mice = experiment: In vivo monitoring of tissue specific effects of bile salts (tail injection); settings: pH 7.4 solution; for skin layers of tails / fat layers of tails: 14 days post-injection; for fat layers of tails: compared to saline
rat paws [6] = settings: in vivo
Protocol: as §1

[7] = tested on: inguinal fat pads of obese mice; set-up: Inflammation of injection site: key to the marks not given beside the values; settings: mouse, in vivo

Compound	pH in which aqueous solution remained stable [1]	Solution stability of bile salt ([1]; pH 6.5, 25° C.)	Solution stability of bile salt ([1]; pH 6.7, 25° C.)	Solution stability of bile salt ([1]; pH 7.0, 25° C.)	Solution stability of bile salt ([1]; pH 7.2, 25° C.)	Solution stability of bile salt ([1]; pH 7.4, 25° C.)	Solution stability of bile salt ([1]; pH 7.6, 25° C.)	Solution stability of bile salt ([1]; pH 7.8, 25° C.)	Solution stability of bile salt ([1]; pH 8.0, 25° C.)	Solution stability of bile salt ([1]; pH 8.3, 25° C.)	pH stability [1]	EC50 (concentration that kills 50% of the cells) (3T3-L1 adipocytes)	ED50 (% w/v); EC50 values of bile salts required to lysis of adipose cells in vitro (3T3-L1 adipocytes)	viability of adipocyte cells (3T3-L1 adipocytes; low concentration (below 0.1%))	histology of injected area (H & E) [2]	lesions in the administered area of fat tissues [2]	severity of edema (paw thickness) (rat paws [3])	EC50 concentrations, ex vivo condition [4]	ED50 (% w/v); EC50 values of bile salts required to lysis of fat tissues ex vivo [4]	effect of increased pH of solution on fat lysis activities [4]	further results
deoxycholate [DCA]	lower than 8.3	Gelation	Gelation	Gelation	Gelation	Gelation	Gelation	Gelation	Gelation	Stable	<8.3	0.051%	0.0509 % w/v	reduced the viability of adipocyte cells	Fibrotic areas	yellowish lesions	most severe edema phenotype	0.0179%	0.0179 % w/v	do not show greatly decreased fat lysis activity	skin lesions (mice skin; higher concentrations): Large lesions, erosions and ulcers; skin lesions (mice skin; lowest dose (0.5%)): small punctate lesions; skin lesions on the injected area (mice skin): severe skin lesions; tissue lysis activity at pH 8.3 compared with pH 7.4 ([5]; necrotic area after injection): lower than the activity of DCA preparation in condition of pH 7.4; skin layers of tails (tails of female ICR mice): not severely damaged; fat layers of tails (tails of female ICR mice): disrupted; damages of muscles in tails (tails of female ICR mice; same concentration of DCA and CA): prominent
C[C@H](CCC(=O)NCCS(=O)(=O)O)[C@H]1CC[C@H]2[C@@H]3[C@@H](O)C[C@@H]4C[C@H](O)CC[C@]4(C)[C@H]3CC[C@]12C [TUDCA, taurourosodeoxycholate]	–	–	–	–	–	–	–	–	–	–	–	–	–	–	–	–	–	–	–	–	viability of adipocyte cells (3T3-L1 adipocytes; up to 2% concentration): did not reduce the viability of adipocyte cells
C[C@H](CCC(=O)O)[C@H]1CC[C@H]2[C@@H]3[C@H](O)C[C@@H]4C[C@H](O)CC[C@]4(C)[C@H]3CC[C@]12C [CDCA, chenodeoxycholate]	–	Gelaton	Gelation	Gelation	Precipitation	Stable	Stable	Stable	Stable	Stable	<7.4	0.060%	0.0597 % w/v	reduced the viability of adipocyte cells	Fibrotic areas	yellowish lesions	slightly lower symptom	0.0180%	0.018 % w/v	greatly diminishes the fat lysis activities	fat lysis activities above the pH 9 [4]: mostly lost their fat lysis activities; concentration enough to show similar tissue lysis effect with 1% DCA (pH 8.3) ([5]; CA at pH 7.0, CDCA at pH 7.4): 0.6%; concentration showing similar tissue lysis activity with the injection of 1% DCA ([5]; same pH (pH 7.4)): 1%
C[C@H](CCC(=O)O)[C@H]1CC[C@H]2[C@@H]3C[C@H](O)[C@@H]4C[C@H](O)CC[C@]4(C)[C@H]3CC[C@]12C [HDCA, hyodeoxycholate]	–	Gelation	Gelation	Gelation	Gelation	Stable	Stable	Stable	Stable	Stable	<7.4	0.42%	0.249 % w/v	–	–	–	–	0.0250%	0.0250 % w/v	greatly diminishes the fat lysis activities	cell killing effect compared to CA (3T3-L1 adipocytes; similar concentration (0˜1%)): slightly higher cell killing effect compared to CA; Adverse event: edema (rat paws [6]): ++; severity of edema (paw thickness) (rat paws [6]): slightly lower symptom; Inflammation of injection site [7]: +++; histological changes in fat pads (H & E) [7]: Infiltration of polymorphonuclear (PMN) cells into the fat pad tissue was observed; inflammation after injection to subcutaneous fat [7]: severe inflammation; EC50 fold higher than DCA or CDCA, ex vivo [4]: 1.4 fold; tissue lysis effect with higher concentration [5]: did not increased proportionally
C[C@H](CCC(=O)O)[C@H]1CC[C@H]2[C@@H]3[C@H](O)C[C@@H]4C[C@H](O)CC[C@]4(C)[C@H]3C[C@H](O)[C@]12C [CA, cholate]	< 7.0	Precipitation	Precipitation	Stable	Stable	Stable	Stable	Stable	Stable	Stable	<7.0	0.42%	0.42 % w/v	–	Fibrotic areas	yellowish lesions	very mild	0.0727%	0.0727 % w/v	greatly diminishes the fat lysis activities	viability of adipocyte cells (3T3-L1 adipocytes; up to 2% concentration): showed cell killing; skin lesions (mice skin; higher dose (1.5%)): Only small punctate lesions; skin damage score (mice skin; highest dose of CA (1.5%) compared to lowest dose of DCA (0.5%)): lower damage score; skin lesions (mice skin; lower doses): no detectable lesions; skin lesions on the injected area (mice skin): significantly less lesions; increment of foot thickness relative to the case of DCA (rat paws [3]): less than one-half; EC50 fold higher than DCA or CDCA, ex vivo [4]: 4 fold; fat lysis activities above the pH 9 [4]: mostly lost their fat lysis activities; concentration enough to show similar necrotic effects with DCA and CDCA ([5]; mouse, in vivo): about two fold higher concentration; concentration enough to show similar tissue lysis effect with 1% DCA (pH 8.3) ([5]; mouse, in vivo): 1.5%; necrotic areas at the same concentration ([5]; mouse, in vivo): smaller than DCA or CDCA; concentration showing similar tissue lysis activity with the injection of 1% DCA ([5]; mouse, in vivo, pH 7.4): about 2%; skin layers of tails (tails of female ICR mice): not severely damaged; fat layers of tails (tails of female ICR mice): disrupted
C[C@H](CCC(=O)O)[C@H]1CC[C@H]2[C@@H]3[C@@H](O)C[C@@H]4C[C@H](O)CC[C@]4(C)[C@H]3CC[C@]12C [UDCA, ursodeoxycholate]	< 7.8	Precipitation	Precipitation	Precipitation	Precipitation	Precipitation	Precipitation	Stable	Stable	Stable	<7.8	0.25%	0.328 % w/v	–	–	–	slightly lower symptom	–	–	–	histological changes in fat pads (H & E) ([5]; 1.5% solution): Infiltration of polymorphonuclear (PMN) cells into the fat pad tissue was observed; tissue lysis effect with higher concentration [5]: did not increased proportionally; inflammation after injection to subcutaneous fat ([5]; one time injection): severe inflammation
